Experimental data published in PMC4586518, “Melanin production through novel processing of proopiomelanocortin in the extracellular compartment of the auricular skin of C57BL/6 mice after UV-irradiation” (Scientific Reports, 2015).
“Also recorded” adds a separate entry of the source. No end group written: not given here.

How the values were obtained:
[1] = biological target: T1, MC-1R (Mus musculus, UniProt Q01727); test: Inhibition of α-MSH- or ACTH(1–8)-induced melanin production in B16 cells by MC-1R antagonist; format: cell-based; conditions: dose-dependent effect of antagonist, n = 4
T1 construct: Mouse melanoma cell line B16[43], which express MC-1R and produce melanin; host or cells: B16 mouse melanoma cells (adherent, whole cells)
Description: Figure 3 ACTH(1–8)-mediated melanin production via the MC-1R. (A). The Radioreceptor assay of ACTH(1–8) (open circle) and α-MSH (closed circle) in mouse melanoma B16 cells. B16 mouse melanoma cells were incubated with [^125I]-α-MSH and 10^−7–10^−11 M ACTH(1–8) or 10^−6–10^−11 M α-MSH. The receptor binding of [^125I]-α-MSH was expressed as 100% in the absence of α-MSH and 0% in the presence of 1 μM α-MSH and calculated as relative activity. (B). ACTH(1–8)- and α-MSH-mediated melanin production. B16 mouse melanoma cells were incubated with 10^−7–10^−11 M ACTH(1–8) (open circle) or 10^−6–10^−11 M α-MSH (closed circle). Melanin levels are expressed as 100% and 0% in the presence of 1 μM α-MSH and absence of α-MSH, respectively, and calculated as the relative activity. C. […] Melanin levels are expressed as 100% and 0% in the presence of 1 μM α-MSH and absence of α-MSH, respectively, and calculated as the relative activity.
Melanin production activity was performed as follows: B16 cells and normal human melanocytes (TOYOBO. Osaka, Japan) were seeded at the density of 1 × 10[5] cells in 24-well plates and allowed to attach overnight. […] Cells were solubilized in 1 M NaOH at 60°C, and melanin content was measured spectrophotometrically at 475 nm. Melanin levels were expressed as 100% and 0% in the presence of 1 μM α-MSH and absence of α-MSH, respectively. […]

[2] = tested on: frog skin; design: method as in PMID 2822931; conditions: cited from earlier work
[3] = tested on: lizard skin; design: method as in PMID 2537778; conditions: cited from earlier work
[4] = tested on: melanin production; conditions: bioassay studies on melanin production; cited from earlier work
[5] = tested on: mouse melanoma B16 cells; conditions: 72 h
Description: (B). […] C. […] Each point and line represents the mean ± SEM (n = 4).
Melanin production activity was performed as follows: B16 cells and normal human melanocytes (TOYOBO. Osaka, Japan) were seeded at the density of 1 × 10[5] cells in 24-well plates and allowed to attach overnight. […] Cells were solubilized in 1 M NaOH at 60°C, and melanin content was measured spectrophotometrically at 475 nm.

[6] = tested on: MC-1R; design: method as in 2 sources, ref 23 = [23]; PMID 17317724; doi:10.1096/fj.06-7398com; Rousseau K. et al. Proopiomelanocortin (POMC), the ACTH/melanocortin precursor, is secreted by human epidermal keratinocytes and melanocytes and stimulates melanogenesis . FASEB J 21 , 1844 – 1856 ( 2 ||| ref 34 = [34]; PMID 1556905; doi:10.1016/0024-3205(92)90347-r; Slominski. A. et al. Melanotropic activity of gamma MSH peptides in melanoma cells . Life Sci , 50 , 1103 – 1108 ( 1992 ). 1556905 10.1016/0024-3205(92)90347-r; conditions: cited from earlier work
Excerpt: To clarify the mechanism of melanin production after UV-irradiation, we assessed the expression of POMC and POMC-derived peptides after UV-irradiation to the skin of the murine auricle.

[7] = tested on: MC-1R; conditions: cited from earlier work
Excerpt: Melanin plays an important role in protecting skin after UV-irradiation. α-MSH is a major catalyst for melanogenesis in the skin following UV-irradiation. α-MSH-LI and ACTH-LI may be present in culture media of normal keratinocytes, fibroblasts, melanocytes, and their cell extracts. Although POMC and POMC-derived peptides such as ACTH and α-MSH are released from the intermedia of the pituitary, it is unlikely that pituitary secretions contribute to local pigmentation. In the present report, POMC-related peptides were detected in the UV-irradiated auricle ... || Structure-activity analyses of α-MSH have reported information on the essential sequence required for MC-1R binding and melanin production. […] However, Ac-His-Phe-Arg-Trp-NH2 had 400,000-fold less activity (EC50 20 μM) than α-MSH in a frog skin bioassay[31] and approximately 7,000-fold less activity (EC50 1 μM) in a lizard skin bioassay. Furthermore, the N-terminal region of α-MSH is ...

T1 sequence (Q01727 whole entry): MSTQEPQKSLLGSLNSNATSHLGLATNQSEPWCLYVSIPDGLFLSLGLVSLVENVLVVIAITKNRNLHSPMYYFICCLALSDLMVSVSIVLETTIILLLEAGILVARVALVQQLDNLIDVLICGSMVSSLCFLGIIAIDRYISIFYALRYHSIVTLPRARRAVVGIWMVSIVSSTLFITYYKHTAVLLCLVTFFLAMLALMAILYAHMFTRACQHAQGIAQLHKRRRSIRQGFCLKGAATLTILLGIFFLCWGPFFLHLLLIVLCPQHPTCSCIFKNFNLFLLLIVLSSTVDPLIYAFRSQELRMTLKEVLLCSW

Q: What does the source list for “ASP(87–132)-NH2: a MC-1R antagonist (TPLSAPCVATRNSCKPPAPACCDPCASCQCRFFRSACSCRVLSLNC-NH2; cysteine pairing not given here; UniProt P42127 87-132, looked up, fragment)”?
A: effect on ACTH(1–8)-mediated melanin production ([1]; 10^−7 M ACTH(1–8)): competitively attenuated; also recorded: decreased both ACTH(1–8)- and α-MSH-mediated melanogenesis; effect on α-MSH-mediated melanin production ([1]; 10^−8 M α-MSH): decreased both ACTH(1–8)- and α-MSH-mediated melanogenesis

Q: What does the source list for Ac-His-Phe-Arg-Trp-NH2?
A: EC50 ([2]; frog skin, read-out: EC50, frog skin bioassay): 20000 nM; fold less activity than α-MSH, frog skin bioassay ([2]; relative to α-MSH): 400,000 fold; EC50 ([3]; lizard skin, read-out: EC50, lizard skin bioassay): 1000 nM; fold less activity than α-MSH, lizard skin bioassay ([3]; relative to α-MSH): approximately 7,000 fold; melanotropic response [4]: minimal synthetic fragment capable of eliciting a melanotropic response

Q: For SYSMEHFR [ACTH(1–8)], which EC50 [5] is on record?
A: 80 nM

Q: For “adrenocorticotropic hormone (SYSMEHFRWGKPVGKKRRPVKVYPNGAEDESAEAFPLEF; Corticotropin; UniProt P01189 138-176, looked up) [ACTH, intermediate form of α-MSH, produced from POMC; 4.5 kDa]”, which “agonism at MC-1R” value ([6]; MC1-R) is on record?
A: known agonists

Q: With γ-MSH as the substance, how does the “antagonism against MC-1R” value [6] read?
A: competitive antagonist against MC-1R

Q: What about the “potency when binding to MC-1R” value ([6]; compared with ACTH(1–8)) of the same substance?
A: potent when binding to MC-1R, but at low potency levels similar to ACTH(1–8)

Q: And the “melanin production” value [7]?
A: increases melanin production
